Entries after “also recorded” stand apart in the source; their conditions may differ. Bridge positions count the residues as written; N and C are the ends. Square brackets hold non-standard residues; d marks the D form. Ends that are not written are not given here. Peptide text beside a SMILES is read from it. R8 = C=CCCCCCC[C@@](C)(N)C(=O)O; S5 = C=CCCC[C@](C)(N)C(=O)O
Key:
HEK293T cells = test: LC3 lipidation western blot in HEK293T cells; format: cell-based; settings: 10 μM and 20 μM, absence or presence of chloroquine (50 μM)
Description: Transient DNA transfection was performed using Lipofectamine 2000 (Invitrogen). For Co-IP experiment to measure interaction between UVRAG and endogenous Beclin 1, FLAG-tagged UVRAG plasmids were transfected into HEK293T cells. […] For immunoblotting assay of LC3-II, p62 and EGFR degradation, FLAG-tagged UVRAG mutant plasmids were transfected into HEK293T cells, HeLa cell stably expressing GFP-LC3 and A549 NSCLC cells respectively. Cells were lysed in IP buffer (25 mM HEPES PH 7.5, 10 mM MgCl2, 150 mM NaCl, 1 mM EDTA.2Na, 1% Nonidet P-40, 1% Triton X-100 and 2% glycerol) or Laemmli sample buffer (62.5 mM Tris-HCl, pH 6.8, 2% SDS, 25% glycerol, 5% β-mercaptoethanol) with freshly added EDTA-free protease inhibitor cocktail (Roche). Protein lysate was either directly subject to immunoblot assay or Co-IP. For Co-IP, Lysates were incubated with FLAG magnetic beads (Sigma) overnight at 4° C. The beads were washed with 1×IP lysis buffer 5 times and then eluted with 2×SDS sample buffer.

[1] = biological target: T1, Beclin 1 coiled coil domain (Rattus norvegicus, UniProt Q91XJ1); test: Light Scattering (LS) profile, dimer-to-monomer transition of Beclin 1 coiled coil domain; format: biochemical
T1 construct: thioredoxin-6xHis fusion (3C protease site) (cleaved yes); made in house; host or cells: Escherichia coli BL21 (DE3)
T1 sequence (Q91XJ1 174-266 limits assumed): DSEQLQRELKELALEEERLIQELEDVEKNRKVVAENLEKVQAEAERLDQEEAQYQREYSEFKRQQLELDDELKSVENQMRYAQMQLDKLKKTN
Source text: Tat sequence (SEQ ID NO: 13: YGRKKRRQRRR) was linked in front of all peptides except the rhodamine B labeled one to enhance cell permeability. The computationally optimized stapled peptide SP4 (SEQ ID NO: 4) was chosen and synthesized by a commercial vendor following the synthetic method pioneered by Kim et. al. (Kim, Grossmann et al. 2011) (FIG. 1C). The purified product was confirmed by mass spectroscopy and HPLC. The importance of the hydrocarbon staple in maintaining the α-helical structure of the designed peptide was confirmed by circular dichroism (CD) measurements (FIG. 1D). […] The Light Scattering (LS) profile of Beclin 1 coiled coil domain in absence of SP4 (SEQ ID NO: 4) indicates a homodimer with predicted molecular weight of 24.8 kDa.

EGFR in HEK293T cells = test: EGFR degradation assay in HEK293T cells; format: cell-based
Description: (§1) HEK293T or A549 cells in 6-well plate were washed with PBS two times and serum-starved overnight in DMEM. EGFR endocytosis was induced by incubation with DMEM medium (with 20 mM HEPES and 0.2% BSA) containing 200 ng/mL of EGF (Invitrogen). Cells were collected at each time point after EGF stimulation and lysed in Laemmli sample buffer (62.5 mM Tris-HCl, pH 6.8, 2% SDS, 25% glycerol, 5% β-mercaptoethanol). 20 μg protein lysate was collected for each time point, analyzed by SDS-PAGE and immunoblotted with anti-EGFR antibody (1:2000, Santa Cruz Biotechnology).

[2] = test system: wild type EGFR in A549 cell line; test: EGFR degradation assay in A549 cells; format: cell-based; settings: A549 NSCLC
Description: as §1

[3] = test system: mutated EGFR in H1975 cell lines; test: EGFR degradation assay in H1975 cells; format: cell-based; settings: H1975 NSCLC
[4] = test system: GFP-tagged Beclin 1 in A549 cell; test: Confocal colocalization with GFP-Beclin 1 in A549 cells; format: cell-based; settings: A549 cells transiently expressing GFP-Beclin 1, 20 μM, 30 minutes
Description: A549 cells transiently expressing GFP-Beclin 1 were treated with 20 μM Rhodamine-SP4 (SEQ ID NO: 4) for 30 minutes and observed under a confocal microscope.

dimer-to-monomer transition in Beclin 1 coiled coil domain [1] | Compound | LC3 lipidation (HEK293T cells) | EGFR degradation (EGFR in HEK293T cells) | EGFR degradation [2] | EGFR degradation [3] | colocalization with GFP-Beclin 1 [4]
can induce dimer-to-monomer transition | CC[C@H](C)[C@H](NC(=O)[C@H](CC(C)C)NC(=O)[C@H](CCCNC(=N)N)NC(C)=O)C(=O)N[C@@H](CO)C(=O)N[C@@H](CCC(=O)O)C(=O)N[C@@H](CC(C)C)C(=O)N[C@]1(C)CCCCCC/C=C/CCC[C@@](C)(C(=O)N[C@@H](C)C(N)=O)NC(=O)[C@H](CCCNC(=N)N)NC(=O)[C@H](CCC(N)=O)NC(=O)[C@H](CCCCN)NC(=O)[C@H](CCC(=O)O)NC(=O)[C@H](CCCNC(=N)N)NC(=O)[C@H](CC(=O)O)NC1=O [SP4] (Ac-RLISEL[R8]DREKQR[S5]A-NH2; staple (E) 7-14; N-terminus and C-terminus assumed) | enhanced LC3 lipidation in dosage-dependent manner | significantly enhanced EGFR degradation | significantly enhanced EGFR degradation | significantly enhanced EGFR degradation | –
– | Rhodamine-labeled SP4: rhodamine B labeled SP4, without Tat sequence (RLISEL[R8]DREKQR[S5]A; staple 7-14 (inferred); also: rhodamine B label, position not given here) | – | – | – | – | colocalizes; also recorded: co-localized well

Source: patent US10618939B2, “Hydrocarbon-stapled polypeptides for enhancement of endosome-lysosomal degradation” (The Hong Kong Polytechnic University, priority 2016, dated 2020)
